Publication PMC8233831, “On the Inhibitability of Natural Products Isolated from Tetradium ruticarpum towards Tyrosine Phosphatase 1B (PTP1B) and α-Glucosidase (3W37): An In Vitro and In Silico Study” (Molecules, 2021)
Where two headings read alike, the source gives them in different places. Values belong to the compound of their own block, whether it stands above or below them.

Key:
aldose reductase = test system: aldose reductase; set-up: method as in PMID 17498942; settings: cited from earlier work
sorbitol accumulation = test system: sorbitol accumulation; set-up: method as in PMID 17498942; settings: at 100 μM; cited from earlier work
nitric oxide production = test system: nitric oxide production; set-up: method as in PMID 26753624; settings: cited from earlier work
[1] = target: T1, Protein tyrosine phosphatase 1B (human recombinant) (Homo sapiens, UniProt P18031); assay: Protein tyrosine phosphatase 1B inhibition assay (p-NPP substrate); type: biochemical; settings: means ± SD of three replicates; read-out: PTP1B IC50
T1 construct: purchased Biomol International LP, Plymouth Meeting, Pennsylvania, PA, USA
T1 sequence (P18031 1-435): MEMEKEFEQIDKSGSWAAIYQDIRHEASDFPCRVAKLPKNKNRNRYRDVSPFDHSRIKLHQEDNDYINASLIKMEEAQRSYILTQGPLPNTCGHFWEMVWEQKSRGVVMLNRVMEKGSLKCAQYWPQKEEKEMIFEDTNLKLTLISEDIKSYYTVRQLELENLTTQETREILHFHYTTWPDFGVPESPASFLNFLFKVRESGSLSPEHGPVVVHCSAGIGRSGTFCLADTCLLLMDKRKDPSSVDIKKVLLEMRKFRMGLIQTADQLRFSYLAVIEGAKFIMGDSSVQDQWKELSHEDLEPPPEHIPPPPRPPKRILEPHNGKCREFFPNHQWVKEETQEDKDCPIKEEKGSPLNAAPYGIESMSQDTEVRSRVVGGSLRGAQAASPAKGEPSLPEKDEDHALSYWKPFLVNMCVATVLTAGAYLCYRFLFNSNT
Description: Protein tyrosine phosphatase 1B (human recombinant), i.e., PTP1B, was purchased from Biomol International LP, Plymouth Meeting, Pennsylvania, PA, USA, and the inhibitory activities of the tested samples were evaluated using the method as described. In a typical procedure, 0.05–0.1 μg of PTP1B (BIOMOL International L.P., Plymouth Meeting, Pennsylvania, PA, USA) and 4 mM p-NPP in a buffer containing 1 mM dithiothreitol, 0.1 M NaCl, 1 mM EDTA, and 50 mM citrate (pH 6.0), with or without test compounds, were added, with 100 μL final volume to each of the 96 wells. After the reaction mixture was incubated at 37 °C for 30 min, 10 M NaOH was added to quench the reaction. PTP1B enzyme activity was determined by the amount of produced p-nitrophenol at 405 nm. The nonenzymatic hydrolysis of the substrate was corrected by measuring the control, which contained no PTP1B enzyme.

α-glucosidase = assay: α-Glucosidase inhibition assay (pNPG substrate); type: biochemical; settings: means ± SD of three replicates
Description: The inhibitory activity of α-glucosidase was determined according to the modified method with a readily available enzyme. In a typical procedure, α-glucosidase (0.1 U/mL, Wako) was dissolved in 100 mM sodium phosphate buffer (pH 6.8) and used as an enzyme solution. A total of 1 mM p-Nitrophenyl-α-D-glucopyranoside (pNPG) in the same buffer (pH 6.8) was used as a substrate solution. […] After substrate solution (95 μL) was added, the sample solution was incubated for another 10 min at 37 °C incubator. Enzymatic activity was quantified by measuring absorbance at 405 nm using an enzyme-linked immunosorbent assay (ELISA) microplate reader (D.I Biotech Ltd., Seoul, Korea).

[2] = test system: obese/diabetic KK-Ay mice; set-up: method as in PMID 24391749; settings: cited from earlier work
[3] = test system: peroxisome proliferator-activated receptors (PPARs); set-up: method as in PMID 30827999; settings: cited from earlier work
[4] = test system: Bacillus subtilis (ATCC6633); set-up: method as in PMID 23651559; settings: cited from earlier work
Hela = test system: Hela; set-up: method as in PMID 23651559; settings: MTT method; cited from earlier work
[5] = test system: experimental hepatocarcinogenesis; set-up: method as in ref 33 = [33]; 33. Bai J.W. Zhang Y. Wu J. Flow cytometric analysis of the schinifoline inhibition on rat hepatoma cell induced by DEN Beijing Zhongyiyao Daxue Xuebao 1999 22 34 35; settings: by inhibiting hepatoma cell's DNA synthesis; cited from earlier work
BEL7402 = test system: BEL7402; set-up: method as in PMID 23651559; settings: BEL7402, MTT method; cited from earlier work
A549 cells [6] = test system: A549 cells; set-up: method as in PMID 25470278; settings: cited from earlier work
[7] = test system: Staphyloccocus aureus (ATCC25923); set-up: method as in PMID 23651559; settings: cited from earlier work
HepG2 = test system: HepG2; set-up: method as in PMID 23651559; settings: HepG2, MTT method; cited from earlier work
[8] = test system: Jurkat T cells clone E6.1; set-up: method as in doi:10.5012/bkcs.2010.31.04.1081; settings: Jurkat T cells clone E6.1, MTT method; cited from earlier work
[9] = test system: experimental liver cancer cells in rats; set-up: method as in ref 32 = [32]; 32. Bai J.W. Zhang Y. Yang M.J. Effects of schinifoline on cytoskeleton of experimental hepatoma in rats observed by whole mount cell transmission electron microscopy Beijing Zhongyiyao Daxue Xuebao 2; settings: by influencing cytoskeleton; cited from earlier work
[10] = test system: Staphylococcus epidermidis (ATCC12228); set-up: method as in PMID 23651559; settings: cited from earlier work
A549 cells [11] = test system: A549 cells; set-up: method as in PMID 25470278; settings: applied before 60Co γ-irradiation; cited from earlier work
Candida albicans = test system: Candida albicans; set-up: method as in PMID 33971509; settings: cited from earlier work
BEL7403 = test system: BEL7403; set-up: method as in PMID 23651559; settings: BEL7403, MTT method; cited from earlier work

Compound: CNc1ccccc1C(=O)N1CCc2c([nH]c3ccccc23)C1=O [rhetsinine]
aldose reductase inhibition (aldose reductase): inhibited aldose reductase in a dose-dependent manner | inhibition of sorbitol accumulation (sorbitol accumulation): 79.3%

IC50 [1]: 47.7 ± 1.1 µM | IC50 (α-glucosidase): 167.4 ± 1.4 µM
Compound: CC(=CCOc1ccc(C=CCO)cc1)CO [Compound 2, 3-[4-(4-methylhydroxy-2-butenyloxy)-phenyl]-2-propenol]
in vitro inhibitory effect on nitric oxide production (nitric oxide production): did not show in vitro inhibitory effect

Compound: evodiamine
obesity and insulin resistance [2]: reduced obesity and insulin resistance | activation of PPARs [3]: activate peroxisome proliferator-activated receptors

IC50 [1]: 24.3 ± 0.8 µM | IC50 (α-glucosidase): 92.1 ± 0.8 µM
Compound: CCCCCCCc1cc(=O)c2ccccc2n1C [Compound 1, 2-heptyl-1-methylquinolin-4-one]
in vitro inhibitory effect on nitric oxide production (nitric oxide production): did not show in vitro inhibitory effect | antibacterial activity [4]: no antibacterial activity | cytotoxicity (Hela): no cytotoxicity | treatment of experimental hepatocarcinogenesis [5]: can treat experimental hepatocarcinogenesis | cytotoxicity (BEL7402): no cytotoxicity | cytotoxicity on A549 cells IC50 (A549 cells [6]; 6 h treatment): 33.7 ± 2.4 µg/mL | cytotoxicity on A549 cells IC50 (A549 cells [6]; 12 h treatment): 21.9 ± 1.9 µg/mL | cytotoxicity on A549 cells IC50 (A549 cells [6]; 24 h treatment): 16.8 ± 2.2 µg/mL | antibacterial activity [7]: no antibacterial activity | cytotoxicity (HepG2): no cytotoxicity | cytotoxicity [8]: no cytotoxicity | treatment of experimental liver cancer cells in rats [9]: can be used to treat experimental liver cancer cells in rats | antibacterial activity [10]: no antibacterial activity | radio-sensitivity of A549 cells (A549 cells [11]): enhanced the radio-sensitivity of A549 cells | effect on negative effects of Candida albicans in vivo (Candida albicans): inhibited the negative effects of Candida albicans in vivo | cytotoxicity (BEL7403): no cytotoxicity
